From patent US4089974A, “5-Carboxy-phenylenebis(carbonylimino)benzene carboxylic and dicarboxylic acids and salts” (American Cyanamid Company, priority 1977, dated 1978)
Structures can show the parent of a compound that is named as a salt.

Legend:
[1] = tested on: Citrated sheep plasma (CSP); experiment: in vitro anti-coagulant activity (AC), citrated sheep plasma clotting; type: biochemical
Method: The sheep RBC's, kept in suspension throughout the clotting incubation time, become enmeshed in the fibrin matrix if a clots forms. Upon centrifugation of the plate, untrapped RBC's form buttons, the sizes of which correspond to the degree of clot inhibition; this providing a measure of anti-coagulant activity (AC). Sodium heparin is used as a positive control and activity is reported in wells appearing in Table I.

human C1 = experiment: Test, Code 026 (C1 inhibitor); type: biochemical
Source text: An active inhibitor protects C2 from C1 and C4; (ii) Test, Code 035 (C3-C9 inhibitor) -- This test determines the ability of the late components of human complement (C3-C9) to lyse EAC 142 in the presence of appropriate dilutions of the test compound. An active inhibitor protects EAC 142 from lysis by human C3-C9; (iii) Test, Code 036 (C-Shunt inhibitor) -- In this test human erythrocytes rendered fragile are lysed in autologous serum via the shunt pathway activated by cobra venom factor in the presence of appropriate dilutions of the test compound. Inhibition of the shunt pathway results in failure of lysis; (iv) Forssman Vasculitis Test -- Here, the well known complement dependent lesion, Forssman vasculitis, is produced in guinea pigs by intradermal injection of rabbit anti-Forssman antiserum. […]

[2] = Intrinsic Therapeutic Index (Code 026 versus AC); conditions: Table II
Source text: The computation of an Intrinsic Therapeutic Index (ITI) was devised to correlate the results, expressed in wells, obtained in the in vitro Code 026 (C1 inhibitor) test and the in vitro anti-coagulant (AC) test into a meaningful value which would aid in the net evaluation of the activity of the compounds of this invention.
The ITI of a given compound may be defined as the antilogarithm of the logarithmic (base 2) difference between the highest serial dilution in wells which is active in the Code 026 test and the highest serial dilution in wells providing activity in the anti-coagulant test. The ITI is thus a measure of the separation of anti-complement and anti-coagulant activities; the higher the numerical value the more therapeutically useful the separation of activities.

complement system = conditions: cited from earlier work; for anticomplementary effect: British Journal of Experimental Pathology, 33, 327-339 (1952)
[3] = tested on: hereditary angioneurotic edema; conditions: The New England Journal of Medicine, 286, 808-812 (1972); cited from earlier work

Molecule: O=C([O-])c1cc(C(=O)Nc2ccc(C(=O)[O-])c(C(=O)[O-])c2)cc(C(=O)Nc2ccc(C(=O)[O-])c(C(=O)[O-])c2)c1.[Na+].[Na+].[Na+].[Na+].[Na+] [4,4'-[5-Carboxy-1,3-phenylenebis(carbonylimino)]-diphthalic acid pentasodium salt]
- AC Wells ([1]; Table I, two-fold serial dilution assay, sodium heparin positive control): ≤ -2 Wells
- Anti-Coagulant Activity (Wells) AC ([1]; Table II, in vitro): -2 Wells
- C1 026 Wells (human C1; Table I, two-fold serial dilution assay, higher well number indicates higher activity): +2 Wells
- Complement Inhibiting Activity (Wells) Code 026 (human C1; Table II, in vitro): +2 Wells
- Intrinsic Therapeutic Index ([2]; antilogarithm of the logarithmic (base 2) difference): 16
- Logarithmic Difference Expressed as Wells ([2]; log base 2 difference, Code 026 minus AC): +4 Wells

Molecule: Cc1ccc(C(=O)Nc2ccc(S(=O)(=O)O)c3cc(S(=O)(=O)O)cc(S(=O)(=O)O)c23)cc1NC(=O)c1cccc(NC(=O)Nc2cccc(C(=O)Nc3cc(C(=O)Nc4ccc(S(=O)(=O)O)c5cc(S(=O)(=O)O)cc(S(=O)(=O)O)c45)ccc3C)c2)c1 [Suramin, 8-(3-benzamido-4-methylbenzamido)naphthalene-1, -3,5-trisulfonic acid]
- inhibition of the complement system (complement system; Clin. Exp. Immunol., 10, 127-138 (1972)): competitive inhibitor of the complement system
- treatment of hereditary angioneurotic edema [3]: used with success

Molecule: Nc1ccc2cc(S(=O)(=O)O)cc(O)c2c1N=Nc1ccc(NC(=O)Nc2ccc(N=Nc3c(N)ccc4cc(S(=O)(=O)O)cc(O)c34)c(S(=O)(=O)O)c2)cc1S(=O)(=O)O [chlorazol fast pink, 3,3'-ureylenebis-[6-(2-amino-8-hydroxy-6-sulfo-1-naphthylazo)]benzenesulfonic acid, tetrasodium salt]
- anticomplementary effect (complement system): reported to have an anticomplementary effect

Molecule: NCCCCCC(=O)O [epsilon-aminocaproic acid]
- treatment of hereditary angioneurotic edema [3]: used with success

Molecule: NC[C@H]1CC[C@H](C(=O)O)CC1 [tranexamic acid]
- treatment of hereditary angioneurotic edema [3]: used with success

Molecule: heparin
- anticomplementary effect (complement system): reported to have an anticomplementary effect
